Experimental data taken from patent US12357608B2, “Methods and compositions utilizing RRx-001 combination therapy for radioprotection” (priority 2018, dated 2025).
Entries after “also recorded” stand apart in the source; their conditions may differ.

Tests used:
CD2F1 male mice [1] = assay: Survival following lethal total body irradiation (TBI); assay type: in vivo
Procedure: In this Example, the effects of systemic administration of RRx-001 on survival in response to a lethal dose of radiation was assayed in mice. CD2F1 male mice 9.5-11 weeks old were administered a single dose of RRx-001 by intraperitoneal (IP) injection 24 hours prior to a lethal radiation dose. 24 mice received 10 mg/kg RRx-001 (formulated in 5% DMSO in sterile H2O) and 24 mice received the vehicle control (5% DMSO) in sterile H2O only).
The mice were subjected to total body irradiation (TBI) with 9.35 Gy (LD70/30) at 0.6 Gy/min using High-level Cobalt-60. Unanesthetized mice were placed in well-ventilated Plexiglas restrainers and irradiated bilaterally. Sham-irradiated mice were also placed in identical Plexiglas restrainers and kept in a room shielded from irradiation at the same time. In each experiment, the dose to the abdominal cores of the animals was delivered at a dose rate of approximately 0.6 Gy/min. Dosimetry was performed prior to the irradiation of the animals using the highly accurate alanine/electron spin resonance (ESR) dosimetry system (American Society for Testing and Materials, Standard E 1607) to measure dose rates (to water) in the cores of acrylic mouse phantoms, which were located in the compartments of the exposure rack. A calibration curve based on standard alanine calibration dosimeters provided by the National Institute of Standards and Technology (NIST, Gaithersburg, MD) was used to measure the doses. The accuracy of the dose rate calibrations has been verified several times using the services of the National Physics Laboratory (UK National Standards Laboratory, London, UK) and the M.D. Anderson Cancer Center (Houston, TX). The corrections applied to the measured dose rates in the phantoms were for a small difference in the Co-60 energy between the mass energy-absorption coefficients for soft tissue and water, as well as source decay. The radiation field was uniform within ±1.2%.
Mice were monitored at least twice a day for 30 days post-irradiation. During the critical period (days 10-20), mice were monitored at least three times a day with no more than 10 hours between observations. Mice displaying any signs of discomfort received food in their cage as a wet mash. Mice displaying overt dyspnea, weight loss, lethargy, or other markers of moribundity and appearing to be in distress were humanely euthanized in a separate room using carbon dioxide gas followed by cervical dislocation after breathing stopped as a confirmatory method of euthanasia. This experiment was repeated for a total of n=24 mice per group.
Survival curves were estimated using the Kaplan-Meier method and were compared using a two-sided log-rank test at the 0.05 significance level. P-values were considered statistically significant if less than 0.05.

CD2F1 male mice [2] = assay: Complete blood count with differential and reticulocytes after sublethal TBI or sham irradiation; assay type: in vivo; conditions: 7 Gy TBI
Procedure: (§1) To determine the pathophysiological effects of RRx-001 on hematopoietic protection in mice, CD2F1 male mice were treated with 10 mg/kg RRx-001 or the vehicle control 24 hours prior to a sublethal dose of TBI (7 Gy at 0.6 Gy/min using High-level Cobalt-60) or sham irradiation (day 0) according to the table below.
(§2) CD2F1 male mice (n=3/group) were divided into 4 experimental groups: 1) irradiation+vehicle, 2) irradiation+RRx-001, 3) sham-irradiation+vehicle and 4) sham-irradiation+RRx-001. Either 10 mg/kg RRx-001 or the vehicle control were IP injected 24 hours prior to either irradiation or sham-irradiation (day 0). On days 2, 7, 14, 21, and 28 post-irradiation (day 0) mice were humanely euthanized. Blood, bone marrow, and sternebrae were then collected. This experiment was performed in duplicate for a total of n=6 mice/group/time point.
Post-irradiation whole blood was obtained by terminal cardiocentesis. Blood samples were immediately transferred into EDTA tubes (Sarstedt Inc., Newton, NC) and gently rotated until the time of analysis. The tubes were analyzed for a complete blood count with differential and reticulocytes using the ADVIA 2120 (Siemens Medical Solutions Diagnostics, Dublin, Ireland), and Microsoft software version 5.9 (Microsoft Corp., Redmond, WA) to generate the data.
(§3) Blood parameters were compared between treatment groups using an analysis of variance (ANOVA). The Wilcoxon test was also used for sensitivity and to potentially address data departures from normality. A longitudinal mixed model repeated measures was also implemented to provide a more complete data analysis of the sham-irradiated treatment groups' difference in overall time profile mean based on the blood parameters. Bone marrow data (megakaryocytes and grade) statistical analysis was carried out using a parametric test consisting of a general linear model analysis of variance (ANOVA with factors consisting of treatment group and pathologist) and the Kruskal-Wallis nonparametric test. The statistical data analysis was carried out using R software (Version 3.4.3, 2016) and the graphs made using GraphPad Prism version 7.03 (GraphPad Software, La Jolla, CA).

bone marrow = assay: Histopathological analysis of bone marrow sternebrae (cellularity grade, megakaryocytes) after sublethal TBI or sham irradiation; assay type: in vivo, mice
Procedure: as §1, §2
Sternebrae from euthanized mice (n=6/group/time point) were collected on days 2, 7, 14, 21 and 28 post-irradiation. Sternebrae were fixed in 10% zinc-buffered formalin for at least 24 hours and up to 7 days. Fixed sternebrae were decalcified for 3 hr in 12-18% sodium EDTA (pH 7.4-7.5) and specimens dehydrated using graded ethanol concentrations and embedded in paraffin. Longitudinal 4 μm sections were stained with regular hematoxylin and eosin. Two board-certified pathologist conducted histopathological evaluation of the samples. One of the pathologist scored all the samples blindly. Bone marrow was evaluated in situ within sternebrae and graded (Grade 1: <10%; Grade 2: 11-30%; Grade 3: 31-60%; Grade 4: 61-89%; Grade 5: >90%) for total cellularity. Megakaryocytes were also quantified based on the average per 10 high power fields (HPF) at 400× magnification using a BX43 or BX53 microscope (Olympus, Minneapolis, MN). Images were captured with an Olympus DP22 camera and imported into Olympus Cellsens Standard software for review.
as §3
To determine the effect of RRx-001 on bone marrow, a histopathological analysis of bone marrow sternebrae was performed and the cellularity, as reported by grade (grade 1: <10%; grade 2: 11-30%; grade 3: 31-60%; grade 4: 61-89%; grade 5: ≥90% cellularity), and megakaryocyte numbers (averaged per 10 high-powered fields; HPF) were ascertained by two pathologists, one of which scored all the samples blindly (TAS, WEC).

[3] = days 2 and 21 post-irradiation, vs vehicle control

O=C(CBr)N1CC([N+](=O)[O-])([N+](=O)[O-])C1 [RRx-001, 2-bromo-1-(3,3-dinitroazetidin-1-yl)ethan-1-one]
increase in mean survival time compared to the vehicle control (CD2F1 male mice [1]; 10 mg/kg 24 hours prior to lethal TBI): 7 days | increase in survival (CD2F1 male mice [1]; 10 mg/kg 24 hours prior to lethal TBI, vs vehicle control): 33.4% | survival times, means±standard errors (CD2F1 male mice [1]; 10 mg/kg IP 24 hours prior to 9.35 Gy TBI, 30-day observation, N=24/group): 27.2 ± 1.1 days | reduction in the 30-day death risk (CD2F1 male mice [1]; one dose 10 mg/kg IP 24 hours prior to 9.35 Gy (LD70/30) TBI, vs vehicle control irradiated mice): ~33.4% | % RETIC (CD2F1 male mice [2]; day 14, vs control mice): significantly increased | ALC counts (CD2F1 male mice [2]; day 14, vs controls): significantly increased | WBC counts (CD2F1 male mice [2]; day 14, vs controls): significantly increased | % HCT (CD2F1 male mice [2]; day 14, vs irradiated control): significantly increased | % RETIC (CD2F1 male mice [2]; day 28, vs vehicle controls): significantly increased | absolute lymphocyte count (ALC) (CD2F1 male mice [2]; [3]): No significant difference | absolute neutrophil count (ANC) (CD2F1 male mice [2]; [3]): No significant difference | percent hematocrit (% HCT) (CD2F1 male mice [2]; [3]): No significant difference | percent reticulocytes (% RETIC) (CD2F1 male mice [2]; [3]): No significant difference | platelets (PLT) (CD2F1 male mice [2]; [3]): No significant difference | white blood cells (WBC) (CD2F1 male mice [2]; [3]): No significant difference | ANC (CD2F1 male mice [2]; days 7 and 14, vs control): significantly increased | PLT (CD2F1 male mice [2]; days 7 and 14, vs control): significantly increased | red blood cells and hemoglobin (CD2F1 male mice [2]; irradiated RRx-001 vs irradiated vehicle group): not significantly different | white blood cells and red blood cell production (CD2F1 male mice [2]; irradiated mice vs irradiated vehicle control): significant increase | bone marrow cellularity compared to the vehicle control (bone marrow; 7 Gy TBI, 10 mg/kg IP 24 h before, day 7): slight increase in cellularity | hematopoietic recovery by grade of bone marrow cellularity compared with control (bone marrow; 7 Gy TBI, 10 mg/kg IP 24 h before, day 14, 10 mg/kg): significantly accelerated hematopoietic recovery; also recorded: significant increase in bone marrow cellularity | number of megakaryocytes (bone marrow; 7 Gy TBI, 10 mg/kg, between days 7-28): steady increase | number of megakaryocytes (bone marrow; 7 Gy TBI, 10 mg/kg, day 2): reduced | number of megakaryocytes (bone marrow; 7 Gy TBI, 10 mg/kg, day 7): severely depleted | bone marrow cellularity grade (bone marrow; after 7 Gy TBI, 10 mg/kg IP 24 h before): 1 (grade 1: <10%)
